According to ChEMBL document CHEMBL5291721, “A preclinical secondary pharmacology resource illuminates target-adverse drug reaction associations of marketed drugs” (Nat Commun, 2023):

Columns and labels:
[1] = target: T1, Alpha-2A adrenergic receptor (Homo sapiens, UniProt P08913); type: functional, cell-based
T1 sequence (P08913 whole entry): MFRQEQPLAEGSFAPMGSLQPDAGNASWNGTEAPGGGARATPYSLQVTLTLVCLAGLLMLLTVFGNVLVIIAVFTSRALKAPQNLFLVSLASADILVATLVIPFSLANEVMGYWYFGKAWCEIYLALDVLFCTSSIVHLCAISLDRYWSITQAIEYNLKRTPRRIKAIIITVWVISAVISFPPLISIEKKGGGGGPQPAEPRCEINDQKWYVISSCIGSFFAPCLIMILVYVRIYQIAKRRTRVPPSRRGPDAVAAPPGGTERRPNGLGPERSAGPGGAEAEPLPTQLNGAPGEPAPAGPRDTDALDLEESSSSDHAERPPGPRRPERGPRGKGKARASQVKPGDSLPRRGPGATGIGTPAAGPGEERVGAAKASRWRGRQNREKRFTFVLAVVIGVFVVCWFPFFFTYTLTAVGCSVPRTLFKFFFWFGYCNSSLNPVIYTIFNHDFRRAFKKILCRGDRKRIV

[2] = target: T2, Alpha-2B adrenergic receptor (Homo sapiens, UniProt P18089)
T2 sequence (P18089 whole entry): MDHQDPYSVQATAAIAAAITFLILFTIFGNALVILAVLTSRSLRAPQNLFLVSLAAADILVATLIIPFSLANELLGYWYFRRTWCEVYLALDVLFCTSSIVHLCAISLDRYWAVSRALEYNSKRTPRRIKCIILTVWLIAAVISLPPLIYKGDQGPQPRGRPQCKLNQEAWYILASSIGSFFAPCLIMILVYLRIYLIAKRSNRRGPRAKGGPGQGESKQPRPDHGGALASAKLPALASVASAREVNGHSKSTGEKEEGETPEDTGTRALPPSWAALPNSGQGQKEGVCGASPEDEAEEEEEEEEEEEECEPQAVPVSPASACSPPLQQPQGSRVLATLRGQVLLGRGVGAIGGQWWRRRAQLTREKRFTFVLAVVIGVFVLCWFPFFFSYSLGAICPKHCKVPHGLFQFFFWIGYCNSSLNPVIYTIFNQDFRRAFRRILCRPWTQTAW

[3] = target: T3, Alpha-2C adrenergic receptor (Homo sapiens, UniProt P18825); type: functional
T3 sequence (P18825 whole entry): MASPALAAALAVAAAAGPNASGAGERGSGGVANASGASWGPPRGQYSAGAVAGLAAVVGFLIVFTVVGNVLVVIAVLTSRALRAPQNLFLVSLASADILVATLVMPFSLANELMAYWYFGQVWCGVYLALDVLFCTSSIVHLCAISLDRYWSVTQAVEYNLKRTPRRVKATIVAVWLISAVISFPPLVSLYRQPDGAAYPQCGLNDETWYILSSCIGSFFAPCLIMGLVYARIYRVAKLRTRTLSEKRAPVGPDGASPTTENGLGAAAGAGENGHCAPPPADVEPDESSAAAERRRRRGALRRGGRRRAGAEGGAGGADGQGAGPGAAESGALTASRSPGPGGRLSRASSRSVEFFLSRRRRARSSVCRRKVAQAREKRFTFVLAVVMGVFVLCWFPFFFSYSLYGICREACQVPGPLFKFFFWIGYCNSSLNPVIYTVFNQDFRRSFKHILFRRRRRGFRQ

[4] = target: Beta-1 adrenergic receptor (Homo sapiens, UniProt P08588); type: functional
Chain of Beta-1 adrenergic receptor (P08588 whole entry): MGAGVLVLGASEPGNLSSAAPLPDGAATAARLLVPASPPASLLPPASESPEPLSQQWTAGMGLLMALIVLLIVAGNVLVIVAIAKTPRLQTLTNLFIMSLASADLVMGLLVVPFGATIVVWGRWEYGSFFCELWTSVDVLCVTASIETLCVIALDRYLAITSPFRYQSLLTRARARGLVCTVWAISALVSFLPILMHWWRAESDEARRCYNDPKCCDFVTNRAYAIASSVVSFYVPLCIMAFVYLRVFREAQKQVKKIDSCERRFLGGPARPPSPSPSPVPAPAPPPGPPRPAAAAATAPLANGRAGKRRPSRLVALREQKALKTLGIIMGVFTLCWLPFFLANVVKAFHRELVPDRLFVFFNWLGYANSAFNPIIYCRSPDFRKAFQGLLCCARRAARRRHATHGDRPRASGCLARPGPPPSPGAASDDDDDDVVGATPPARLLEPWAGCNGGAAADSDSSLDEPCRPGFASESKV

[5] = target: T4, Endothelin-1 receptor (Homo sapiens, UniProt P25101)
T4 sequence (P25101 whole entry): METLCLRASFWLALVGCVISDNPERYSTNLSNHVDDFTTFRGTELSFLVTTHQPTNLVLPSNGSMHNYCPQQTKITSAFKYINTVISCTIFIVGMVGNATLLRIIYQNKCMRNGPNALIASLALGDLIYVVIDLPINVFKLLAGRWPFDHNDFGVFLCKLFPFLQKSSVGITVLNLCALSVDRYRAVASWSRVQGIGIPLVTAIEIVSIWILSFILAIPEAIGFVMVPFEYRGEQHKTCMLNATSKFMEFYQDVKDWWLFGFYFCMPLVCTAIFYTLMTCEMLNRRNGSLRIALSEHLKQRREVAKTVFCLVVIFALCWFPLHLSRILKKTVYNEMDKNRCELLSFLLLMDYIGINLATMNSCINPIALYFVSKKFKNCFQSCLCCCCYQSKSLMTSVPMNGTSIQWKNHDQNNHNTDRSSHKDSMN

[6] = target: T5, 5-hydroxytryptamine receptor 2A (Homo sapiens, UniProt P28223); type: functional, cell-based
T5 sequence (P28223 whole entry): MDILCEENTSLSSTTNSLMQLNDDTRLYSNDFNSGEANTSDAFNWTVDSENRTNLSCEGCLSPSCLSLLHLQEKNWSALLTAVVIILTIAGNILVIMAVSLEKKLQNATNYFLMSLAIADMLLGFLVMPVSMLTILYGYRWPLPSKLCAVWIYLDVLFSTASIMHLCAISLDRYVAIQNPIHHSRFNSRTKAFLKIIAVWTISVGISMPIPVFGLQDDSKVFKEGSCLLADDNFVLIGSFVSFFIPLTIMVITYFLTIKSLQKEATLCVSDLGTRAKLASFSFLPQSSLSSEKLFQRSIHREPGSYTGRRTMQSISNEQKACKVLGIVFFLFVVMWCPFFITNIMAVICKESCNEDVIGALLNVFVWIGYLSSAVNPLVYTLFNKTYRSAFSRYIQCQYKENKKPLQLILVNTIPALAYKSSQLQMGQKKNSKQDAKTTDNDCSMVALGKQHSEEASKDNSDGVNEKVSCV

[7] = target: T5, 5-hydroxytryptamine receptor 2A; type: functional, cell-based; remark: listed apart in the source
[8] = target: 5-hydroxytryptamine receptor 2B (Homo sapiens, UniProt P41595); type: functional, cell-based
Chain of 5-hydroxytryptamine receptor 2B (P41595 whole entry): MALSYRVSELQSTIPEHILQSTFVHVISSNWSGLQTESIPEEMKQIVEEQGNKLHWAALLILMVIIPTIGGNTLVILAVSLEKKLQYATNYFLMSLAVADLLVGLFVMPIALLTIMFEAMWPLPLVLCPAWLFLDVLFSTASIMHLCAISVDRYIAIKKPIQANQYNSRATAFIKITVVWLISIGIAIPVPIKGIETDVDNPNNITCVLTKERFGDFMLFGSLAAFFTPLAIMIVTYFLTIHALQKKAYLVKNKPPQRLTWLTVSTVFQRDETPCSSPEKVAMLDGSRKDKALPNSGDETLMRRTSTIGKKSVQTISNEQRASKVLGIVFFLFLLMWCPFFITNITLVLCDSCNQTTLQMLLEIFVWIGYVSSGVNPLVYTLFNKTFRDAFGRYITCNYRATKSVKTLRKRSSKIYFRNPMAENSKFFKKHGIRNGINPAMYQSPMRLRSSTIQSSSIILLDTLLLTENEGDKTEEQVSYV

[9] = target: T6, Thromboxane A2 receptor (Homo sapiens, UniProt P21731)
T6 sequence (P21731 whole entry): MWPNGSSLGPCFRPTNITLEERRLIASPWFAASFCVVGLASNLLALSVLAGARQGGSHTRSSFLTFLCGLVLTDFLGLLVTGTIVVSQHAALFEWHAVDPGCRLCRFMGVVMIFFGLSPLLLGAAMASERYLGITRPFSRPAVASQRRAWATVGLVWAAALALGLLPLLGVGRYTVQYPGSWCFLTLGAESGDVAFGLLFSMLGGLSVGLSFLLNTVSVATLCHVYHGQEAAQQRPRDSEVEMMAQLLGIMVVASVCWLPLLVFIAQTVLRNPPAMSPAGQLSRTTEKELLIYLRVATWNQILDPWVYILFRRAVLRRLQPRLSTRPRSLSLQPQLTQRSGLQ

[10] = target: T7, Alpha-1A adrenergic receptor (Homo sapiens, UniProt P35348); type: functional, cell-based
T7 sequence (P35348 whole entry): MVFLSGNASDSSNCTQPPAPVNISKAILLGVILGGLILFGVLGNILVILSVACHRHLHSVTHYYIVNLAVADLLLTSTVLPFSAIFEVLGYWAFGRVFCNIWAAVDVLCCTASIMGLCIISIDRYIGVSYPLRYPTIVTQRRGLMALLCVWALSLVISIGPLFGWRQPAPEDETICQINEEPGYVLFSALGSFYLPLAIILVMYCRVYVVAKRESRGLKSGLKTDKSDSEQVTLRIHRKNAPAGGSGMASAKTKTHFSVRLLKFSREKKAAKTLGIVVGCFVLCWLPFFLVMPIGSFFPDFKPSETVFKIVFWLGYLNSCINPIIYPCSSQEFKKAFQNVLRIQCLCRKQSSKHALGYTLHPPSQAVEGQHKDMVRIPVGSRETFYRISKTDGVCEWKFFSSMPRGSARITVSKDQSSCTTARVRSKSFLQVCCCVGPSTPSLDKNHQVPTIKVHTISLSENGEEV
Note: assay procedure not described here.

Row | Compound | AC50 [1] | AC50 [2] | AC50 [3] | AC50 [4] | AC50 [5] | AC50 [6] | AC50 [7] | AC50 [8] | AC50 [9] | AC50 [10]
1 | C=C[C@@]1(C)CC(=O)[C@]2(O)[C@@]3(C)[C@@H](O)CCC(C)(C)[C@@H]3[C@H](OC(=O)CCN(C)C)[C@H](OC(C)=O)[C@@]2(C)O1 | > 30 µM | > 30 µM | > 30 µM | > 30 µM | > 30 µM | > 30 µM | > 30 µM | > 30 µM | > 30 µM | –
2 | CC(=O)OCC(=O)[C@@]1(O)CC[C@H]2[C@@H]3CCC4=CC(=O)CC[C@]4(C)C3=CC[C@@]21C [ANECORTAVE ACETATE] | > 10 µM | > 10 µM | > 10 µM | > 10 µM | – | > 10 µM | > 10 µM | > 10 µM | > 10 µM | > 30 µM
3 | CCCCC1(CC)C(=O)NC(=O)NC1=O [BUTETHAL] | > 30 µM | > 30 µM | > 30 µM | > 30 µM | > 30 µM | > 30 µM | > 30 µM | > 30 µM | – | > 30 µM
4 | CCN(CC)CCOC(=O)c1ccc(N)cc1Cl [CHLOROPROCAINE] | > 30 µM | > 30 µM | > 30 µM | > 30 µM | > 30 µM | > 30 µM | > 30 µM | > 30 µM | – | > 30 µM
5 | COCCOC(=O)C1=C(C)NC(C)=C(C(=O)OC/C=C/c2ccccc2)C1c1cccc([N+](=O)[O-])c1 (stereo not given) [CILNIDIPINE] | > 30 µM | > 30 µM | > 30 µM | > 30 µM | > 30 µM | > 30 µM | > 30 µM | > 30 µM | 21 µM | –
6 | Nc1nc(F)nc2c1ncn2[C@@H]1O[C@H](COP(=O)(O)O)[C@@H](O)[C@@H]1O [FLUDARABINE PHOSPHATE] | > 30 µM | > 30 µM | > 30 µM | > 30 µM | – | > 30 µM | > 30 µM | > 30 µM | > 30 µM | > 30 µM
7 | O=C(O)c1ccccc1OP(=O)(O)O [FOSFOSAL] | > 30 µM | > 30 µM | > 30 µM | > 30 µM | > 30 µM | > 30 µM | > 30 µM | > 30 µM | – | > 30 µM
8 | CCCC[C@H](C)C[C@H](O)/C=C/[C@H]1[C@H](O)CC(=O)[C@@H]1CCCC/C=C/C(=O)O [LIMAPROST] | > 30 µM | > 30 µM | > 30 µM | > 30 µM | > 30 µM | > 30 µM | > 30 µM | > 30 µM | – | > 30 µM
9 | Cc1ccc(NC(=O)C2(c3ccc4c(c3)OC(F)(F)O4)CC2)nc1-c1cccc(C(=O)O)c1 [LUMACAFTOR] | > 30 µM | > 30 µM | > 30 µM | > 30 µM | > 30 µM | > 30 µM | > 30 µM | > 30 µM | – | 25 µM
10 | CC(=O)Nc1c(I)c(C(=O)N[C@H]2C(O)O[C@H](CO)[C@@H](O)[C@@H]2O)c(I)c(N(C)C(C)=O)c1I (stereo not given in full) [METRIZAMIDE] | > 10 µM | > 10 µM | > 10 µM | > 10 µM | – | > 10 µM | > 10 µM | > 10 µM | > 10 µM | > 30 µM
11 | CC(CCc1ccccc1)NC(C)C(O)c1ccc(O)cc1 (stereo not given) [NYLIDRIN] | > 10 µM | 0.73 µM | 0.64 µM | 3.95 µM | > 30 µM | > 30 µM | > 30 µM | 6.9 µM | > 30 µM | –
12 | CC[N+]1(C)CCCC(OC(=O)C(O)(c2ccccc2)c2ccccc2)C1 (stereo not given) [PIPENZOLATE] | > 30 µM | > 30 µM | > 30 µM | > 30 µM | > 30 µM | > 30 µM | > 30 µM | > 30 µM | > 30 µM | –
13 | NC(=O)CCC/N=C(\c1ccc(Cl)cc1)c1cc(F)ccc1O [PROGABIDE] | > 10 µM | > 10 µM | > 10 µM | > 10 µM | – | > 10 µM | > 10 µM | > 10 µM | > 10 µM | > 30 µM
14 | CN1c2ccccc2C(NCCCCCCC(=O)O)c2ccc(Cl)cc2S1(=O)=O (stereo not given) [TIANEPTINE] | > 30 µM | > 30 µM | > 30 µM | > 30 µM | > 30 µM | > 30 µM | > 30 µM | > 30 µM | > 30 µM | –
15 | COc1cc2c(Nc3ccc(Br)cc3F)ncnc2cc1OCC1CCN(C)CC1 [VANDETANIB] | > 30 µM | 0.682 µM | 0.856 µM | > 30 µM | > 30 µM | > 30 µM | 14 µM | 14 µM | – | 22 µM
16 | C=CC(N)CCC(=O)O (stereo not given) [VIGABATRIN] | > 10 µM | > 10 µM | > 10 µM | > 10 µM | – | > 10 µM | > 10 µM | > 10 µM | > 10 µM | > 30 µM
17 | N#C[C@@H]1CCCN1C(=O)CNC12CC3CC(CC(O)(C3)C1)C2 [VILDAGLIPTIN] | > 30 µM | > 30 µM | > 30 µM | > 10 µM | – | > 30 µM | > 30 µM | > 30 µM | > 30 µM | > 30 µM
18 | COLISTIN | > 30 µM | > 30 µM | > 30 µM | – | – | > 30 µM | > 30 µM | > 30 µM | – | > 30 µM
